The test system of series [1] is Staph. aureus Russell. Description: Antibacterial Activity (Example 4), M.I.C. In kind it is cell-based. The note with it: compound alone.
Series [2] relates to P. mirabilis C889. In words: Antibacterial Activity (Example 4), M.I.C. The series is classed as cell-based, Proteus mirabilis. The settings on record: compound alone.
Series [3] relates to Kleb. aerogenes E70. In words: Antibacterial Activity (Example 4), M.I.C. The series is classed as cell-based, Klebsiella aerogenes. The note with it: compound alone.
The test system of series [4] is E. coli JT39. In words: Antibacterial Activity (Example 4), M.I.C. In kind it is cell-based. The note with it: compound alone.
The next series concerns mice. In words: Toxicity, intraperitoneal administration to mice. The series is classed as in vivo. The settings on record: dosages up to 750 mg/kg. The method, then:
The compound of Example 1 (Isomer II) was administered intraperitoneally to mice.

Series [5] concerns Staph. aureus Russell. Description: Antibacterial Synergy (Example 13), MIC. In kind it is cell-based. As for the experimental part:
(§1) The MIC's of ampicillin, the product of Example 10 (synergist) and ampicillin in the presence of the product of Example 10 were determined for a range of bacteria.

Another series relates to Klebsiella aerogenes E70. Description: Antibacterial Synergy (Example 13), MIC. In kind it is cell-based. As for the experimental part:
as §1

The subject of series [6] is E. coli JT39. Description: Antibacterial Synergy (Example 13), MIC. The series is classed as cell-based. The method, then: as §1
For a further series, the system named is Proteus mirabilis C889. Description: Antibacterial Synergy (Example 13), MIC. In kind it is cell-based. The method, then: as §1
The test system of another series is E. coli E96 (RTEM). In kind it is in vivo, mice infected with E. coli. The settings on record: amoxycillin alone; printed × 2 (dosed at 1 and 5 hours after infection); mice. The method, then: Groups of mice were infected intraperitoneally with E. coli E96 (RTEM), and were then dosed at 1 and 5 hours after infection with amoxycillin or amoxycillin and the compound of Example 3.

Series [7] relates to P. mirabilis C889. In words: Antibacterial Synergy (Example 4), MIC for ampicillin. In kind it is cell-based, Proteus mirabilis. The note with it: ampicillin alone, no inhibitor.
Series [8] deals with E. coli JT39. Described as above. The series is classed as cell-based. The note with it: ampicillin alone, no inhibitor.
Series [9] concerns Kleb. aerogenes E70. The description is as above. The series is classed as cell-based, Klebsiella aerogenes. The settings on record: ampicillin alone, no inhibitor.
Series [10] relates to Staph. aureus Russell. Described as above. The series is classed as cell-based. The note with it: ampicillin alone, no inhibitor.
Setting [11] is: ampicillin + synergist at 20 μg/ml.

Regarding `O=C(OCc1ccccc1)C1CC=C2OC3CC(=O)N3C2C1` (single isomer, unassigned) [2 (Isomer II)], the M.I.C. was 62.5 µg/mL with Staph. aureus Russell [1], more than 500 µg/mL with P. mirabilis C889 [2], more than 500 µg/mL with Kleb. aerogenes E70 [3] and more than 500 µg/mL in the series on E. coli JT39 [4].

Take `COC(=O)C1CC=C2OC3CC(=O)N3C2C1` (single isomer, unassigned) [Example 1 (Isomer II)]: the “deaths after 10 days” value with mice is “no deaths were observed at dosages up to 750 mg/kg”. Besides, the M.I.C. was 125 µg/mL in the series on Staph. aureus Russell [1], more than 500 µg/mL in the series with P. mirabilis C889 [2] and more than 500 µg/mL in the series on Kleb. aerogenes E70 [3].

As usually defined, the MIC is the lowest concentration that inhibits growth of the organism. In the case of `O=C(O)C1CC=C2O[C@@H]3CC(=O)N3C2C1` (single isomer, unassigned) [Example 10], the MIC with Staph. aureus Russell [5] (Staphylococcus aureus, synergist alone) is 125 µg/mL; in the series with Klebsiella aerogenes E70 (synergist alone) it was 31.2 µg/mL; in the series on E. coli JT39 [6] (Escherichia coli, synergist alone) it was 16 µg/mL; in the series on Proteus mirabilis C889 (synergist alone), 31.2 µg/mL. Also, the “MIC Ampicillin” value in the series with Klebsiella aerogenes E70 (setting [11]), in the series with E. coli JT39 [6] (setting [11]) and with Proteus mirabilis C889 (setting [11]) was “inhibition” throughout.

With `CC1(C)S[C@@H]2[C@H](NC(=O)[C@H](N)c3ccc(O)cc3)C(=O)N2[C@H]1C(=O)O` [Amoxycillin, amoxycillin], the CD50 in the series with E. coli E96 (RTEM) was 1000 mg/kg.

For `O=C(O)[C@H]1CC=C2O[C@@H]3CC(=O)N3[C@H]2C1` [Example 3, Sodium (1S, 5R)-Δ^7,8-3-oxo-6-oxa-2-azatricyclo-[5.4.0.0^2,5]undecene-10-carboxylate], the M.I.C. is 125 µg/mL in the series on Staph. aureus Russell [1], more than 500 µg/mL in the series on P. mirabilis C889 [2], more than 500 µg/mL in the series with Kleb. aerogenes E70 [3] and 250 µg/mL in the series on E. coli JT39 [4].

`CC1(C)S[C@@H]2[C@H](NC(=O)[C@H](N)c3ccccc3)C(=O)N2[C@H]1C(=O)O` [ampicillin, reference compound]: the MIC for ampicillin was 2000 µg/mL in the series with P. mirabilis C889 [7], 500 µg/mL in the series on E. coli JT39 [8], 2000 µg/mL with Kleb. aerogenes E70 [9] and more than 500 µg/mL with Staph. aureus Russell [10]. Further, the “MIC Ampicillin” value in the series on Staph. aureus Russell [5] (synergist concentration 0) was 500 µg/mL; in the series on Klebsiella aerogenes E70 (synergist concentration 0), 500 µg/mL; with E. coli JT39 [6] (synergist concentration 0), more than 2000 µg/mL; in the series with Proteus mirabilis C889 (synergist concentration 0), more than 2000 µg/mL.

Values taken from patent publication US4415584A, “3-Oxo-6-oxa-2-azatricyclo 5.4.2. unadecene-4-carboxylate” (Beecham Group Limited, priority 1978, dated 1983).
